Experiments:
USP 21 (h) = target: T1, USP 21 (h) (Homo sapiens, UniProt Q9UK80); experiment: Epigenetic enzyme assay, Ubiquitin modifying enzymes; type: biochemical; settings: 10 μM; read-out: % Inhibition of Control Values
T1 sequence (Q9UK80 1-565): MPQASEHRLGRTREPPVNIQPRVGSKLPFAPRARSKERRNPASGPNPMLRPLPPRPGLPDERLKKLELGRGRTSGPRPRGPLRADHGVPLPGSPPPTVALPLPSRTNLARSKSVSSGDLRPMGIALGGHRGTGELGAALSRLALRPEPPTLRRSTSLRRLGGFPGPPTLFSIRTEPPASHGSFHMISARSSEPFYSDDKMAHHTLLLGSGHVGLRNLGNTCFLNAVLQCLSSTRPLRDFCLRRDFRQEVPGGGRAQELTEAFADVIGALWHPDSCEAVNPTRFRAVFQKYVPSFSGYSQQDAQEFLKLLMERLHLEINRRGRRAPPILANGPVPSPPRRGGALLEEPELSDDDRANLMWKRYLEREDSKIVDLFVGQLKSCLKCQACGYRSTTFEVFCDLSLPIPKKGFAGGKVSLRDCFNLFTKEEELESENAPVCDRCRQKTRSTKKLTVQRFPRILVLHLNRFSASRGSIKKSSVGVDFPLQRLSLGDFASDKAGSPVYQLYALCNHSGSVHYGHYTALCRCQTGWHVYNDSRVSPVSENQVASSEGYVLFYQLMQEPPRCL

[1] = target: CYP2D6 (Dextromethorphan Substrate) (Homo sapiens, UniProt P10635); experiment: Cytochrome P450 Inhibition (CYP panel); settings: CYP2D6 (dextromethorphan sub.); Human liver microsomes; 1 μM
H3K4 me2 = experiment: Cell-based detection methyl modifications; settings: read-out: % Inhibition of Control Values
HDAC8 (h) = target: T2, HDAC8 (h) (Homo sapiens, UniProt Q9BY41); experiment: Epigenetic enzyme assay, Histone deacetylase (HDACs); type: biochemical; settings: read-out: % Inhibition of Control Values
T2 sequence (Q9BY41 1-377): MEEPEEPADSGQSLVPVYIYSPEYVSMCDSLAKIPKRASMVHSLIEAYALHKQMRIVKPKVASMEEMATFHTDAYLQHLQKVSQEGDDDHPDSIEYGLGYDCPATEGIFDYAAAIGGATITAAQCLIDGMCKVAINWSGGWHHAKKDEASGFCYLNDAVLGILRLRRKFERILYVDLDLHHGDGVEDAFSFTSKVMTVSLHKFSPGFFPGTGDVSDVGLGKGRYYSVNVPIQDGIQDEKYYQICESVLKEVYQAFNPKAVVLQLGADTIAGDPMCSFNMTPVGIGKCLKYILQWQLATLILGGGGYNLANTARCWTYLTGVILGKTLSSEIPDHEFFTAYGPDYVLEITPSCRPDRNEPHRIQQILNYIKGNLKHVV

H3K27 me2-1 = experiment: Cell-based detection methyl modifications; settings: read-out: % Inhibition of Control Values
CECR2 (h) bromodomain = target: T3, CECR2 (h) bromodomain (Homo sapiens, UniProt Q9BXF3); experiment: Epigenetic binding assay, Bromodomain; settings: for inhibition at 10 µM: read-out: % Inhibition of Control Specific Binding
T3 construct: CECR2(h) bromodomain

PHF8(h) = PHF8(h) (Homo sapiens, UniProt Q9UPP1); experiment: Epigenetic enzyme assay, Demethylases (KDMs); type: biochemical; settings: read-out: % Inhibition of Control Values
EHMT1 (h) = target: T4, EHMT1 (h) (Homo sapiens, UniProt Q9H9B1); experiment: Epigenetic enzyme assay, Methyltransferases (MTs); type: biochemical; settings: for inhibition at 10 µM: read-out: % Inhibition of Control Values
T4 sequence (Q9H9B1 1-1298): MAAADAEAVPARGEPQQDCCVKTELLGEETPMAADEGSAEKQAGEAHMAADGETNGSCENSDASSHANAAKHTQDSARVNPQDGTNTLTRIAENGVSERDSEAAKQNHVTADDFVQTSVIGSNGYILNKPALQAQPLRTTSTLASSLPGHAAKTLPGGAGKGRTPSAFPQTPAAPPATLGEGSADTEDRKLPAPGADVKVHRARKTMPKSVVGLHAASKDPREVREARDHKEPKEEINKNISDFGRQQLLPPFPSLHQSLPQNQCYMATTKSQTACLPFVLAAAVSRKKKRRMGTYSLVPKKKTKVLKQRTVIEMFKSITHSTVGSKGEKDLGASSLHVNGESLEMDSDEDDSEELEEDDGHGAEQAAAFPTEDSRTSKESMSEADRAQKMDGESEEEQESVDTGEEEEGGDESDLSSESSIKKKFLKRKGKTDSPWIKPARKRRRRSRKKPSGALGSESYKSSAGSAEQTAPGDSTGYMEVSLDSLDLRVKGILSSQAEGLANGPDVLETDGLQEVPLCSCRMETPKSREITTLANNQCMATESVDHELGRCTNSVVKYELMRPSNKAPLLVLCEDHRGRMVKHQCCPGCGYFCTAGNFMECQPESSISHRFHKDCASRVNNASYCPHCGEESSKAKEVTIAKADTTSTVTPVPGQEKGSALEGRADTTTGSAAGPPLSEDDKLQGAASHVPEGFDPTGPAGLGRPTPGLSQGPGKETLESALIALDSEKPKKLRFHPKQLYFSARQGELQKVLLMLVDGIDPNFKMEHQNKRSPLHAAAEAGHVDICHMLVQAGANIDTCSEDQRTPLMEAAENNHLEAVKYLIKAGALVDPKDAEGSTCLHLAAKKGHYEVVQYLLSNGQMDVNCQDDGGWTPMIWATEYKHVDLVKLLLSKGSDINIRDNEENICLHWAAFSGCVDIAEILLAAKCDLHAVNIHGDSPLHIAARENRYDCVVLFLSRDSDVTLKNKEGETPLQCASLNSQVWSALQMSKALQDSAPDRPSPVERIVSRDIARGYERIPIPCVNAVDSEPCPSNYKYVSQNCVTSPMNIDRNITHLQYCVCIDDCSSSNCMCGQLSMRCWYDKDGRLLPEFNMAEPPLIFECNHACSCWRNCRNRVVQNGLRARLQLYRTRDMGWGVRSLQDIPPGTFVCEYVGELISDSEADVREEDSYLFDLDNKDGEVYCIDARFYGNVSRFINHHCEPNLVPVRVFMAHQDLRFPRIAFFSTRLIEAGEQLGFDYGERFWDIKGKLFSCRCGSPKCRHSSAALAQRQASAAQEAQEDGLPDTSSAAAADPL

Chain of CYP2D6 (Dextromethorphan Substrate) (P10635 whole entry): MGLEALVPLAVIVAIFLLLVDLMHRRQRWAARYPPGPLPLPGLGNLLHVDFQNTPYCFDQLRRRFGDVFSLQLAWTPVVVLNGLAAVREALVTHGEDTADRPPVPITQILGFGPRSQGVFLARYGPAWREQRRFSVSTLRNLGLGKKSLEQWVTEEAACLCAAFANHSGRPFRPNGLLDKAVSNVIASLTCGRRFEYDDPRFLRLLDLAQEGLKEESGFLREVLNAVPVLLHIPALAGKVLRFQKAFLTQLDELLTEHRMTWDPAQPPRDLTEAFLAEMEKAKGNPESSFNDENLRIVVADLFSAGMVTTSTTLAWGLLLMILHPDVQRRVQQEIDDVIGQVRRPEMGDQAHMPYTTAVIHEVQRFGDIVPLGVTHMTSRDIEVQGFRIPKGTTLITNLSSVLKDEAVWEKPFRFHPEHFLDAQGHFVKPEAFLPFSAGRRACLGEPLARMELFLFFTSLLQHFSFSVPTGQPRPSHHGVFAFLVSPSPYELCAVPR
T3 sequence (Q9BXF3 434-538 limits assumed): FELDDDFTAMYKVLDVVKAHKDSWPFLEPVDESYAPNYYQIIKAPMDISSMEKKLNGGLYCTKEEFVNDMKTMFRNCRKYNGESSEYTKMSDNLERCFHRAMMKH
Chain of PHF8(h) (Q9UPP1 whole entry): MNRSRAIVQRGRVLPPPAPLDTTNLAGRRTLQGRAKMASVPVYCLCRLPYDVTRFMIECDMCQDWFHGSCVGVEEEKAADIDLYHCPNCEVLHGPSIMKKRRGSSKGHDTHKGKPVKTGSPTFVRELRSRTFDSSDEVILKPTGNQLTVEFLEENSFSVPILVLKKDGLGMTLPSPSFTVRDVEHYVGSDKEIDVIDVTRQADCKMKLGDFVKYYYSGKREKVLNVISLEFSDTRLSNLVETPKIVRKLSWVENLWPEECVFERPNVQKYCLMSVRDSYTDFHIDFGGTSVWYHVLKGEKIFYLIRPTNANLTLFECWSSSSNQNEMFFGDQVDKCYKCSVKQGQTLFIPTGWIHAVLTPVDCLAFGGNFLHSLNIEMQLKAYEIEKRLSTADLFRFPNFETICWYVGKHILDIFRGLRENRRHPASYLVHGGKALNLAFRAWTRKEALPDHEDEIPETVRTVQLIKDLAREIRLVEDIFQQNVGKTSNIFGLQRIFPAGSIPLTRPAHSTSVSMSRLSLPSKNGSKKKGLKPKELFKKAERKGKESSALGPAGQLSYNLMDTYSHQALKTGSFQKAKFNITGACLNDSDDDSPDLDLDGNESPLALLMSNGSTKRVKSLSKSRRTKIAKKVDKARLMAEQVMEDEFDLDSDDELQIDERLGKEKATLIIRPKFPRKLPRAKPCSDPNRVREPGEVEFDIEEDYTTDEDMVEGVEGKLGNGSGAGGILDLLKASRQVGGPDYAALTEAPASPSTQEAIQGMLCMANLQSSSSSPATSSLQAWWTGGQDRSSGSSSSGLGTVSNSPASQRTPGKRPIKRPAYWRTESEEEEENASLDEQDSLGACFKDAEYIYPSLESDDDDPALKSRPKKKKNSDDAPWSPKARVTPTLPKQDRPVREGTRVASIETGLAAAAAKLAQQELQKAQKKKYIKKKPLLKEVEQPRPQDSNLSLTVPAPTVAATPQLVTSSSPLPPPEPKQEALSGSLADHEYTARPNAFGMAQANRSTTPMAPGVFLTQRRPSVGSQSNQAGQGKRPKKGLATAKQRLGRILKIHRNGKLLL

SMILES	inhibition at 10 µM (USP 21 (h)) [%]	% Inhibition of Control Values [1] [%]	inhibition at 10 µM (H3K4 me2) [%]	inhibition at 10 µM (HDAC8 (h)) [%]	inhibition at 10 µM (H3K27 me2-1) [%]	inhibition at 10 µM (CECR2 (h) bromodomain; 10 μM) [%]	inhibition at 10 µM (PHF8(h)) [%]	inhibition at 10 µM (EHMT1 (h)) [%]	also measured
CC(C)=CCC[C@H](CO)[C@@H]1CC[C@@H](C)c2c1cc(C)c(O)c2O [Compound 1, 7,8,18-trihydroxyserrulat-14-ene]	-18	13	-5	-8	-2	100	36	13	% Inhibition of Control Specific Binding (CECR2 (h) bromodomain; 10 μM): significant inhibitory activity; inhibition of binding, 1st (CECR2 (h) bromodomain; 3.0E−05M): 99.4; inhibition of binding, 2nd (CECR2 (h) bromodomain; 3.0E−05M): 99.6; inhibition of binding, Mean (CECR2 (h) bromodomain; 3.0E−05M): 99.5; inhibition of binding, 1st (CECR2 (h) bromodomain; 3.0E−06M): 7.3; inhibition of binding, 2nd (CECR2 (h) bromodomain; 3.0E−06M): 8.6; inhibition of binding, Mean (CECR2 (h) bromodomain; 3.0E−06M): 7.9; inhibition of binding, 1st (CECR2 (h) bromodomain; 3.0E−07M): −1.5; inhibition of binding, 2nd (CECR2 (h) bromodomain; 3.0E−07M): 0.9; inhibition of binding, Mean (CECR2 (h) bromodomain; 3.0E−07M): −0.3; inhibition of binding, 1st (CECR2 (h) bromodomain; 3.0E−08M): −0.9; inhibition of binding, 2nd (CECR2 (h) bromodomain; 3.0E−08M): −1.7; inhibition of binding, Mean (CECR2 (h) bromodomain; 3.0E−08M): −1.3; inhibition of binding, 1st (CECR2 (h) bromodomain; 3.0E−09M): 5.9; inhibition of binding, 2nd (CECR2 (h) bromodomain; 3.0E−09M): 2.4; inhibition of binding, Mean (CECR2 (h) bromodomain; 3.0E−09M): 4.2; IC50 (CECR2 (h) bromodomain; Table 9, inhibition/concentration-response curve): 5000 nM
CC(C)=CCC[C@@H]1C(O)Oc2c(C)cc(O)c3c2[C@H]1CC[C@H]3C (stereo partly drawn) [Compound 2, 5,18-epoxyserrulat-14-en-8,18-diol]	3	18	-1	-19	3	25	-11	9	–
CC(C)=CCC[C@@H]1COc2c(C)cc(O)c3c2[C@H]1CC[C@H]3C [Compound 3, 5,18-epoxy-8-hydroxyserrulat-14-ene]	3	–	-9	0	2	15	13	63	–
CC(C)=CCC[C@H](C)[C@@H]1CC[C@@H](C)c2c1cc(C)c(O)c2O [Compound 4, 7,8-dihydroxyserrulat-14-ene]	–	21	–	–	–	–	–	–	–
Nc1ncnc2c1ncn2[C@@H]1O[C@H](CSCC[C@H](N)C(=O)O)[C@@H](O)[C@H]1O [SAH]	–	–	–	–	–	–	–	–	IC50 (EHMT1 (h); read-out: Reference IC50): 180 nM

From patent publication US11331299B2, “Medicinal use of serrulatane diterpenes” (The University of Sydney, priority 2016, dated 2022)
